# Results as given in article PMC12208134, “Structure-activity relationships of 1,5-dihydro-2H-benzo[b][1,4]diazepine-2,4(3H)-diones as inhibitors of Trypanosoma cruzi” (RSC medicinal chemistry, 2025).
# Values joined by “and” are separate entries in the source; they are usually repeats but may differ in a detail not shown here. Equal values may be shown once. Read-outs that look alike come from different tables or passages of the source.
# Legend:
# [1] = test system: host Vero cell; test: Vero host cell toxicity in the intracellular T. cruzi assay; format: cell-based; parameters: key to Max Effect (Vero): % inhibition; 0% = DMSO control, 100% = 16 μM nifurtimox control; details: for EC50 / IC50: Chlorocebus sabaeus; for EC50: Vero; for IC50: host Vero cell, read-out: Vero pIC50 (converted)
# Protocol: (§1) T. cruzi intracellular potency and rate-of-kill assay (high content imaging) ^1
# (§2) Silvio X10/7 T. cruzi trypomastigotes were incubated at 37°C 5% CO2 with 1.6×10^7 Vero cells overnight at MOI10 in MEM media supplemented with 10% foetal calf serum (FCS). Extracellular parasites were removed by aspirating cell culture supernatant, and washing Vero monolayer with 10 ml serum-free MEM three times. Vero cells were then harvested by trypsinization and dispensed at 2×10^3 per well (50 μl in MEM/ 1% FCS) into 384 well plates pre-stamped with compounds in DMSO using automated washer/ dispenser EL406 and liquid handling software (Biotek). Plates were then incubated at 37°C in 5% CO2 for 96 h. For rate-of-kill determination, plates were incubated for 24h, 48h, 72h and 96h.
# (§3) Plates were subsequently fixed with 4% formaldehyde for 20 min, permeabilised and stained with 5 μgml^-1 Hoechst 33342/ 0.1% Triton/ PBS Thimerosal 20 min. Automated imaging was performed by an Operetta high content imaging system using 20x objective (PerkinElmer). Images were analysed with an algorithm generated in Columbus (PerkinElmer) to segment Vero cell nuclei, Vero cell cytoplasm and parasite nuclei/ kinetoplasts, reporting number of amastigotes per Vero cell, percent infected Vero cells and total number of Vero cells. Compound potencies against T. cruzi parasites were calculated in IDBS Activitybase using percent infected Vero cells and Vero toxicity curves generated using number of host cells. All data was normalised to percent inhibition based on the raw data values for the 100% effect control (16 μM nifurtimox) and the 0% effect control (DMSO) on each plate at each time point. Curve fitting was carried out using a four-parameter equation as previously described. ^2 For rate-of-kill experiments the percent infected cells at each compound concentration was plotted against time.
# [2] = test system: intracellular T. cruzi amastigotes; test: T. cruzi intracellular potency assay (high content imaging); format: cell-based, Trypanosoma cruzi; parameters: key to Max Effect (T. cruzi): % inhibition; 0% = DMSO control, 100% = 16 μM nifurtimox control; details: for Emax: read-out: Max Effect (T. cruzi); for IC50: intracellular amastigotes in Vero cells, 96 h, mean of N ≥ 3, read-out: T. cruzi pIC50 (converted)
# Protocol: as §1, §2, §3
# [3] = ChromLogD pH7.4 (chromatographic hydrophobicity index), PFI, LLE; details: for PFI: ChromLogDpH7.4 + no. aromatic rings; for chromatographic logD: pH 7.4
# Source text: [23] Alongside PFI, LLE (ligand lipophilic efficiency, T. cruzi pIC50 - ChromLogDpH7.4) was also monitored to identify changes where the impact on potency was not driven by increasing lipophilicity.
# [4] = Human liver microsomal intrinsic clearance; format: in vitro ADME
# [5] = test system: intracellular T. cruzi; test: T. cruzi washout assay; format: cell-based, Trypanosoma cruzi; details: 25 x IC50 for 16 days, infected Vero cells
# Protocol: For any hits identified and successfully triaged, the initial focus of hit-expansion is to identify compounds with a suitable profile to run in a washout assay.,[21] In this assay, intracellular T. cruzi are treated with high doses of compounds for an extended duration (25x IC50 for 8 – 16 days), followed by compound washout and assessment of parasite relapse over 60 days to assess ability to clear all parasites, including any persisters. […] Compound series with a profile equal to or better than benznidazole can then be progressed to an in vivo efficacy model of chronic Chagas disease with a high probability of success.
# At this stage, we were keen to examine our options for progression into the T. cruzi washout assay, [12],[21] and decided to move forward with 2, 14 and 16 to give coverage across both chemotypes. […] After this dosing period, the compound was washed off the infected cells, and the host cell monolayer was monitored for egressed parasites. The first day egressed parasites were detected post washout was noted down as the relapse day. In this assay, posaconazole, which is known to be ineffective in the clinic, relapsed after 10 days and benznidazole, used as the bench-mark clinical compound, relapsed after 31 / 35 days (2 replicates). We were therefore looking for compounds that relapsed at an equivalent time to benznidazole, or later, to be considered worth pursuing further.
# Intracellular T. cruzi washout assays were carried out with the Silvio X10/7 strain using the protocol previously described. ^1
# [6] = Mouse liver microsomal intrinsic clearance; format: in vitro ADME
# [7] = Kinetic aqueous solubility by CAD; format: physicochemical; details: kinetic from dmso stock
# [8] = molecular target: Tc-CYP51 (Trypanosoma cruzi, UniProt Q7Z1V1); test: T. cruzi sterol 14α-demethylase (CYP51) enzyme assay; format: biochemical; details: for Emax: read-out: Tc CYP51 Max Effect; for fold more potent against the parasites than against Tc-CYP51: urea series
# Protocol: T. cruzi sterol 14α-demethylase (CYP51) enzyme assay
# Potency against T. cruzi CYP51 was determined using a previously described fluorescence assay. Average potency for compound 1 was determined with three experimental replicates. Potencies in Fig.3 are from single experimental replicates. ^5
# [9] = test system: T. cruzi trypomastigotes; parameters: method as in PMID 30001347; details: cited from earlier work
# [10] = test system: T. cruzi; parameters: method as in PMID 24827034, PMID 29352704; details: clinical trials; cited from earlier work
# [11] = molecular target: Tc-MetRS (Trypanosoma cruzi, UniProt Q4D6H2); test: T. cruzi aminoacyl tRNA synthetase enzyme assay (TcMetRS); format: biochemical
# Protocol: T. cruzi aminoacyl tRNA synthetase enzyme assays
# Assays were run for 2 hours.
# [12] = molecular target: Tc-HisRS (Trypanosoma cruzi, UniProt Q4DA54); test: biochemical
# Protocol: TcHisRS assay wells contained TcHisRS assay buffer (30 mM Tris; pH 8, 140 mM NaCl, 40 mM MgCl2, 30 mM KCl, 0.01% (v/v) Brij and 1 mM DTT) plus 50 nM TcHisRS, 8 μM ATP, 5 μM L-histidine and 1 U/mL pyrophosphatase. Assays were run for 2 hours.
# [13] = test system: T. cruzi epimastigotes; test: T. cruzi oxygen consumption assay; format: cell-based; details: Trypanosoma cruzi, read-out: T. cruzi oxygen consumption pIC50 (converted)
# Protocol: T. cruzi oxygen consumption assay
# Oxygen consumption was measured using T. cruzi epimastigotes and the MitoXpress Xtra Oxygen Consumption Assay (Agilent) as previously reported. ^6
# [14] = test system: intracellular T. cruzi amastigotes; test: Rate-of-kill assay against intracellular amastigotes; format: cell-based, Trypanosoma cruzi
# Protocol: as §1, §2
# Plates were subsequently fixed with 4% formaldehyde for 20 min, permeabilised and stained with 5 μgml^-1 Hoechst 33342/ 0.1% Triton/ PBS Thimerosal 20 min. […] Images were analysed with an algorithm generated in Columbus (PerkinElmer) to segment Vero cell nuclei, Vero cell cytoplasm and parasite nuclei/ kinetoplasts, reporting number of amastigotes per Vero cell, percent infected Vero cells and total number of Vero cells. Compound potencies against T. cruzi parasites were calculated in IDBS Activitybase using percent infected Vero cells and Vero toxicity curves generated using number of host cells. […]
# [15] = test system: T. cruzi trypomastigotes; test: T. cruzi trypomastigote assay; format: cell-based, Trypanosoma cruzi
# Protocol: T. cruzi trypomastigote assay
# Trypomastigote assays were carried out with T. cruzi Silvio X10/7 trypomastigotes using the protocol previously described. ^1
# [16] = molecular target: T. cruzi proteasome (Trypanosoma cruzi, UniProt V5BU39)
# Protocol: T. cruzi proteasome enzyme assay
# The pIC50 of compound 1 was measured in a T. cruzi proteasome assay (N = 2 experimental replicates, each with n = 3 technical replicates) as previously described, using a recombinantly expressed Δβ1Δβ2 mutant proteasome (measuring chymotrypsin site activity only). ^4
# [17] = Trypanosoma cruzi, individual replicate
# [18] = individual replicate, read-out: Tc CYP51 pIC50 (converted)
# [19] = kinetic, CAD, read-out: Aqueous solubility
# Sequence of Tc-CYP51 (Q7Z1V1 whole entry): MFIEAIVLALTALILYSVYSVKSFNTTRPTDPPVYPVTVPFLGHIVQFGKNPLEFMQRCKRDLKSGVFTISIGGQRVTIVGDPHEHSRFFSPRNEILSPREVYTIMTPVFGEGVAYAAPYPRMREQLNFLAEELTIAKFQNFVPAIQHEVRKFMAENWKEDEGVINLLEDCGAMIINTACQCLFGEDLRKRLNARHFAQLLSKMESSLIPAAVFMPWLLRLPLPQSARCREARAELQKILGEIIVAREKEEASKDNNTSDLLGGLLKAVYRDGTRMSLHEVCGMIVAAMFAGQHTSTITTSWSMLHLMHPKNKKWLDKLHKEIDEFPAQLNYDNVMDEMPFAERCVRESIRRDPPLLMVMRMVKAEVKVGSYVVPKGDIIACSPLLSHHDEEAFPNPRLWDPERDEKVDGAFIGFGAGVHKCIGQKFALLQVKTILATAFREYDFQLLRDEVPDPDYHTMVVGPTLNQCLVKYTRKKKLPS
# Sequence of Tc-HisRS (Q4DA54 entry or part of it): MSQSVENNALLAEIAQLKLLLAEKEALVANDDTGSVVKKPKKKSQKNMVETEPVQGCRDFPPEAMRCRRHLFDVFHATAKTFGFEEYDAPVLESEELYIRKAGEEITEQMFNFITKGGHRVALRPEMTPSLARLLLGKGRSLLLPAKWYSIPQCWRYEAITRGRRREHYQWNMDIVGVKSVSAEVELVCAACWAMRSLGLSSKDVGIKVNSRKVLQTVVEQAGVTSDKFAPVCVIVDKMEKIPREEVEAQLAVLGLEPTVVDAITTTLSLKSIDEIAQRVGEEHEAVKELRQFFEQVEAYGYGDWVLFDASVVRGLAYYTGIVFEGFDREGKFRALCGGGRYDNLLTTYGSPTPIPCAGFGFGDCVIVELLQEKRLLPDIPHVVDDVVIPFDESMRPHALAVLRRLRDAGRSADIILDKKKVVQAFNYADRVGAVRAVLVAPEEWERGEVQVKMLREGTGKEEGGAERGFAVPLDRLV
# Sequence of Tc-MetRS (Q4D6H2 entry or part of it): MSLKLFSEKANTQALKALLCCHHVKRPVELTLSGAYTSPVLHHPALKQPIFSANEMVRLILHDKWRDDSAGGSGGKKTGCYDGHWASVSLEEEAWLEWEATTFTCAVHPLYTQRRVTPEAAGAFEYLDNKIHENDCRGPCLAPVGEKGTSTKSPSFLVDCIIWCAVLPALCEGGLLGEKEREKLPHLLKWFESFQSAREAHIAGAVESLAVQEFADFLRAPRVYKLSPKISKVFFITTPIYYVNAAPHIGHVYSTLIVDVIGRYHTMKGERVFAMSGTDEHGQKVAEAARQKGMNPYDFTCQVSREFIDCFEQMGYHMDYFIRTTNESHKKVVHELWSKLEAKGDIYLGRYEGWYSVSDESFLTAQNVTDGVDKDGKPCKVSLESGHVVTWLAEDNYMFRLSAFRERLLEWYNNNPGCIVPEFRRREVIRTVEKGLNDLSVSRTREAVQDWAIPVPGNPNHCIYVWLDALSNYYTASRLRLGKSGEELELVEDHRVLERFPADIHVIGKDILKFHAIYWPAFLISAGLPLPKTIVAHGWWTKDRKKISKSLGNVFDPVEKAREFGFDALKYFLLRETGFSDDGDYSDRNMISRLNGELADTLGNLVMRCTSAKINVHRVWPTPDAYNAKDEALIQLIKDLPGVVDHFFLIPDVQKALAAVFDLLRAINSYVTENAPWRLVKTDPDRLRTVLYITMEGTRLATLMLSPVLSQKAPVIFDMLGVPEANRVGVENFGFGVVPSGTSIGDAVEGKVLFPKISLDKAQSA
smiles,measurement,setting,value
"CC(C)N(C(=O)CN1C(=O)C(N)C(=O)N(c2ccccc2)c2ccccc21)c1ccccc1 (racemic) [Compound 14, 2-(3-amino-2,4-dioxo-5-phenyl-2,3,4,5-tetrahydro-1H-benzo[b][1,4]diazepin-1-yl)-N-isopropyl-N-phenylacetamide]",EC50,[1]; individual replicate,> 50.1 µM
same,IC50,[1],> 50.1 µM
same,Max Effect (Vero),[1]; individual replicate,-6.63 and 8 and -0.0425 and 13 and 41 and 1.19 and 11
same,pEC50 (Vero),[1]; individual replicate,< 4.3
same,Emax,[2]; [17],89%
same,IC50,[2]; Trypanosoma cruzi,0.2 µM
same,Hill slope (T. cruzi),[2]; individual replicate,4.0 and 12.9 and 3.7 and 29.0 and 4.4 and 2.2 and 5.2
same,Max Effect (T. cruzi),[2]; individual replicate,87 and 86 and 88 and 93 and 92 and 82
same,pEC50 (T. cruzi),[2]; individual replicate,6.6 and 6.8 and 7.0 and 6.7
same,PFI,[3],8.0
same,chromatographic logD,[3],5
same,HLM CLi,"[4]; human, microsomes",<0.4 mL/min/g
same,relapse day post washout,[5],6 days
same,MLM CLi,"[6]; mouse, microsomes",3.4 mL/min/g
same,solubility,[7],> 500 µM
"COc1ccc(NC(=O)NC2C(=O)Nc3ccccc3N(c3ccccc3)C2=O)cc1 (stereo not drawn) [Compound 2, 1-(2,4-dioxo-1-phenyl-2,3,4,5-tetrahydro-1H-benzo[b][1,4]diazepin-3-yl)-3-(4-methoxyphenyl)urea]",EC50,[1]; individual replicate,> 50.1 µM
same,IC50,[1],> 50.1 µM
same,Max Effect (Vero),[1]; individual replicate,26 and 22 and 25 and -6 and 27 and 29 and 1.42 and 36
same,Emax,[2]; [17],89%
same,IC50,[2]; Trypanosoma cruzi,1.26 µM
same,Hill slope (T. cruzi),[2]; individual replicate,2.1 and 3.4 and 3.0 and 9.3 and 1.5 and 2.5 and 0.659
same,Max Effect (T. cruzi),[2]; individual replicate,99 and 83 and 84 and 94 and 93 and 92 and 88
same,pEC50 (T. cruzi),[2]; individual replicate,5.8 and 5.7 and 6.3 and 5.9
same,PFI,[3],7.0
same,chromatographic logD,[3],4
same,HLM CLi,[4]; human liver microsomes,<0.4 mL/min/g
same,relapse day post washout,[5],10 days
same,Tc CYP51 Hill,[8]; individual replicate,1.1
same,Emax,[8]; individual replicate,95%
same,IC50,[8]; [18],7.94 µM
same,fold more potent against the parasites than against Tc-CYP51,[8],10 fold
same,MLM CLi,[6]; mouse liver microsomes,<0.5 mL/min/g
same,solubility,[7]; [19],64 µM
"COc1ccc(CN2C(=O)C(N)C(=O)N(c3ccc(OC)cc3)c3ccccc32)cc1 (stereo not drawn) [Compound 16, 3-amino-1-(4-methoxybenzyl)-5-(4-methoxyphenyl)-1,5-dihydro-2H-benzo[b][1,4]diazepine-2,4(3H)-dione]",EC50,[1]; individual replicate,> 50.1 µM
same,IC50,[1],> 50.1 µM
same,Max Effect (Vero),[1]; individual replicate,21 and 44 and 30 and 5.55
same,Emax,[2]; [17],86%
same,EC50,"[2]; Trypanosoma cruzi, individual replicate, read-out: pEC50 (T. cruzi) (converted)",0.316 µM
same,IC50,[2]; Trypanosoma cruzi,0.316 µM
same,Hill slope (T. cruzi),[2]; individual replicate,3.7 and 4.5 and 5.7 and 13.7
same,Max Effect (T. cruzi),[2]; individual replicate,81 and 84 and 91
same,pEC50 (T. cruzi),[2]; individual replicate,6.6
same,PFI,[3],7.2
same,chromatographic logD,[3],4.2
same,HLM CLi,"[4]; human, microsomes",<0.4 mL/min/g
same,relapse day post washout,[5],6 days
same,MLM CLi,"[6]; mouse, microsomes",7.6 mL/min/g
same,solubility,[7],> 270 µM
"O=C(Cn1ccnc1[N+](=O)[O-])NCc1ccccc1 [benznidazole, reference compound]",relapse day post washout,[5],31 days and 35 days
same,activity against trypomastigotes,[9],good activity
CC1CS(=O)(=O)CCN1/N=C/c1ccc([N+](=O)[O-])o1 (stereo not drawn) [nifurtimox],activity against trypomastigotes,[9],good activity
CC[C@@H]([C@H](C)O)n1ncn(-c2ccc(N3CCN(c4ccc(OC[C@@H]5CO[C@@](Cn6cncn6)(c6ccc(F)cc6F)C5)cc4)CC3)cc2)c1=O [posaconazole],treatment failures in patients,[10],70 – 90%
same,relapse day post washout,[5],10 days
same,activity against trypomastigotes,[9],only very weakly active
C[C@@H](c1nc(-c2ccc(C#N)cc2)cs1)[C@@](Cn1cncn1)(OCOP(=O)(O)O)c1ccc(F)cc1F [fosravuconazole],treatment failures in patients,[10],70 – 90%
"Cc1ccc(NC(=O)NC2C(=O)Nc3ccccc3N(c3ccccc3)C2=O)cc1 (stereo not drawn) [Compound 1, 1-(2,4-dioxo-1-phenyl-2,3,4,5-tetrahydro-1H-benzo[b][1,4]diazepin-3-yl)-3-(p-tolyl)urea]",IC50,[11],> 100 µM
same,IC50,[12],> 100 µM
same,EC50,[1]; individual replicate,> 50.1 µM
same,IC50,[1],> 50.1 µM
same,Max Effect (Vero),[1]; individual replicate,13 and 1.41 and 11 and 15 and 2.25 and -0.282
same,Emax,[2]; [17],84%
same,IC50,[2]; Trypanosoma cruzi,1 µM
same,Hill slope (T. cruzi),[2]; individual replicate,2.7 and 4.5 and 6.2 and 2.8 and 1.2 and 2.0 and 4.2
same,Max Effect (T. cruzi),[2]; individual replicate,87 and 88 and 90 and 83
same,pEC50 (T. cruzi),[2]; individual replicate,5.8 and 6.2 and 6.1 and 6.0
same,IC50,[13],> 50.1 µM
same,PFI,[3],7.6
same,chromatographic logD,[3],4.6
same,Rate-of-Kill: cidal activity within,[14],Cidal activity within 96 hours ^f
same,Emax,"[15]; Trypanosoma cruzi, individual replicate, read-out: Tc-Trypo Max Effect",77%
same,IC50,"[15]; Trypanosoma cruzi, read-out: T. cruzi trypomastigote pIC50 (converted)",0.251 µM
same,Tc-Trypo Hill,[15]; individual replicate,0.9 and 1.4 and 1.2 and 1.3
same,Tc-Trypo Max Effect,[15]; individual replicate,79
same,Tc-Trypo pEC50,[15]; individual replicate,7.2 and 7.0 and 6.3 and 6.4
same,HLM CLi,[4]; human liver microsomes,<0.4 mL/min/g
same,Tc Proteasome Hill,[16]; individual replicate,1.1 and 0.9
same,Tc Proteasome Max Effect,[16]; individual replicate,62 and 68
same,Tc Proteasome pIC50,[16]; individual replicate,4.0 and 4.2
same,Tc-proteasome pIC50,"[16]; Δβ1Δβ2 mutant proteasome, chymotrypsin site",4.1
same,IC50,"[8]; average of three experimental replicates, read-out: Tc-CYP51 pIC50 (converted)",15.8 µM
same,Tc CYP51 Hill,[8]; individual replicate,1.3 and 1.1 and 1.4
same,Tc CYP51 Max Effect,[8]; individual replicate,83 and 84
same,Emax,[8]; individual replicate,85%
same,IC50,[8]; [18],6.31 µM and 25.1 µM
same,fold more potent against the parasites than against Tc-CYP51,[8],10 fold
same,MLM CLi,[6]; mouse liver microsomes,0.8 mL/min/g
same,solubility,[7]; [19],35 µM
